# Test results as given in ChEMBL document CHEMBL1201862, “PubChem BioAssay data set” (2004).
#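 Each compound was tested at five concentrations against cells in 96-well plates for 48 hours. GI50 marks 50% less growth.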 The source made the active and inactive calls. No stated cut-off is given here; in the data, active = GI50 up to about 1.1 µM and inactive = higher.
# What was measured:
# Assay in all cases: growth of human tumour cells (NCI), 48 h
# [1] = tested on: SF-295
# [2] = tested on: MDA-N
# [3] = tested on: UO-31
# [4] = tested on: OVCAR-3
# [5] = tested on: DU-145
# [6] = tested on: SF-539
# [7] = tested on: UACC-257
# [8] = tested on: MDA-MB-435
# [9] = tested on: RPMI-8226
# [10] = tested on: OVCAR-4
# [11] = tested on: SN12C
# [12] = tested on: NCI/ADR-RES
# [13] = tested on: HCT-15
# [14] = tested on: NCI-H460
# [15] = tested on: HCC 2998
# [16] = tested on: A498
# [17] = tested on: RXF 393
# [18] = tested on: M14
# [19] = tested on: TK-10
# [20] = tested on: IGROV-1
Compound,GI50 [1],GI50 [2],GI50 [3],GI50 [4],GI50 [5],GI50 [6],GI50 [7],GI50 [8],GI50 [9],GI50 [10],GI50 [11],GI50 [12],GI50 [13] [µM],GI50 [14],GI50 [15],GI50 [16],GI50 [17],GI50 [18],GI50 [19],GI50 [20]
CN[C@@H]1C[C@H]2O[C@@](C)([C@@H]1OC)n1c3ccccc3c3c4c(c5c6ccccc6n2c5c31)C(=O)N[C@@H]4O,0.0241 µM (active),0.0574 µM (active),< 0.0151 µM (active),0.043 µM (active),0.0254 µM (active),< 0.0151 µM (active),0.0603 µM (active),0.0845 µM (active),0.658 µM (active),0.0526 µM (active),0.0208 µM (active),0.0395 µM (active),0.209,0.04 µM (active),0.149 µM (active),< 0.0129 µM (active),< 0.0116 µM (active),0.0255 µM (active),,
COc1cccc(C2c3cc4c(cc3OC(N3CCCC3)C2C)OCO4)c1O (stereo not drawn),3.51 µM (inactive),1.64 µM (inactive),8.26 µM (inactive),2.77 µM (inactive),4.41 µM (inactive),3.03 µM (inactive),4.41 µM (inactive),1.64 µM (inactive),4.23 µM (inactive),9.35 µM (inactive),4.84 µM (inactive),3.7 µM (inactive),3.72,4.6 µM (inactive),12.2 µM (inactive),4.89 µM (inactive),3.58 µM (inactive),3.18 µM (inactive),3.99 µM (inactive),7.14 µM (inactive)
Cc1cc(=O)oc2c(CN(CCCl)CCCl)c(O)ccc12,11.8 µM (inactive),78.2 µM (inactive),41.8 µM (inactive),80.5 µM (inactive),36.5 µM (inactive),20.6 µM (inactive),> 100 µM (inactive),57.3 µM (inactive),19.1 µM (inactive),> 100 µM (inactive),20.7 µM (inactive),71.9 µM (inactive),56.9,17.4 µM (inactive),28.4 µM (inactive),62.7 µM (inactive),30.5 µM (inactive),39.8 µM (inactive),,55.7 µM (inactive)
CC(=O)OCC1OC(SC2=NC(=O)/C(=C/c3ccccc3)S2)C(OC(C)=O)C(OC(C)=O)C1OC(C)=O (stereo not drawn),62.8 µM (inactive),26.8 µM (inactive),23.1 µM (inactive),19.7 µM (inactive),95.1 µM (inactive),23 µM (inactive),34.2 µM (inactive),17 µM (inactive),24.4 µM (inactive),32 µM (inactive),49.8 µM (inactive),30.4 µM (inactive),59,42.2 µM (inactive),28.8 µM (inactive),29 µM (inactive),26 µM (inactive),31.9 µM (inactive),,35.8 µM (inactive)
O=C(O)C#Cc1ccc([N+](=O)[O-])cc1,> 100 µM (inactive),> 100 µM (inactive),> 100 µM (inactive),> 100 µM (inactive),> 100 µM (inactive),> 100 µM (inactive),> 100 µM (inactive),> 100 µM (inactive),> 100 µM (inactive),> 100 µM (inactive),> 100 µM (inactive),> 100 µM (inactive),> 100,> 100 µM (inactive),> 100 µM (inactive),> 100 µM (inactive),> 100 µM (inactive),> 100 µM (inactive),> 100 µM (inactive),> 100 µM (inactive)
C=CC(=O)c1ccc2c(c1)OCCOCCOCCOCCOCCO2,> 100 µM (inactive),39.2 µM (inactive),26.2 µM (inactive),19.7 µM (inactive),> 100 µM (inactive),17.7 µM (inactive),19.1 µM (inactive),19.5 µM (inactive),> 38.8 µM (inactive),20.3 µM (inactive),23.8 µM (inactive),25.3 µM (inactive),21.6,> 100 µM (inactive),> 100 µM (inactive),> 100 µM (inactive),17.2 µM (inactive),20.3 µM (inactive),17 µM (inactive),> 100 µM (inactive)
Clc1cccc(/C=N/C23CC4CC(CC(C4)C2)C3)c1Cl,> 10 µM (inactive),> 10 µM (inactive),,> 10 µM (inactive),> 10 µM (inactive),> 10 µM (inactive),> 10 µM (inactive),> 10 µM (inactive),> 10 µM (inactive),> 10 µM (inactive),> 10 µM (inactive),> 10 µM (inactive),> 10,> 10 µM (inactive),> 10 µM (inactive),> 10 µM (inactive),> 10 µM (inactive),> 10 µM (inactive),> 10 µM (inactive),> 10 µM (inactive)
CCOC(=O)CCC(NC(=O)c1ccc(Oc2nc3c(N)cc(C(F)(F)F)cc3nc2-c2ccccc2)cc1)C(=O)OCC (stereo not drawn),11 µM (inactive),63.1 µM (inactive),70 µM (inactive),3.53 µM (inactive),17.3 µM (inactive),1.67 µM (inactive),> 27.9 µM (inactive),59.8 µM (inactive),> 45.9 µM (inactive),19.2 µM (inactive),45.9 µM (inactive),1.34 µM (inactive),> 100,54.3 µM (inactive),67.8 µM (inactive),> 35.5 µM (inactive),0.402 µM (active),47 µM (inactive),14.6 µM (inactive),33.4 µM (inactive)
CC(=O)NC1C(OCc2ccccc2)OC(CO)C(O)C1OC(C)C(=O)NC(C)C(=O)NC(CCC(=O)NCCCCNc1c2ccccc2nc2cccc([N+](=O)[O-])c12)C(N)=O (stereo not drawn),0.196 µM (active),0.0232 µM (active),0.0738 µM (active),0.139 µM (active),0.00887 µM (active),0.0512 µM (active),0.121 µM (active),0.0325 µM (active),0.0118 µM (active),0.242 µM (active),0.0284 µM (active),0.123 µM (active),0.00893,0.00445 µM (active),0.013 µM (active),0.131 µM (active),0.0199 µM (active),0.277 µM (active),0.0202 µM (active),0.24 µM (active)
Cc1nn(-c2ccccc2)c2nc3c(c(C)nn3-c3ccccc3)c(-c3ccc(C(F)(F)F)cc3)c12,> 100 µM (inactive),> 100 µM (inactive),> 100 µM (inactive),> 100 µM (inactive),> 100 µM (inactive),72.3 µM (inactive),> 100 µM (inactive),> 100 µM (inactive),> 100 µM (inactive),> 100 µM (inactive),> 100 µM (inactive),> 100 µM (inactive),> 100,> 100 µM (inactive),> 100 µM (inactive),> 100 µM (inactive),> 100 µM (inactive),> 100 µM (inactive),> 100 µM (inactive),
O=S1(=O)OCCOS(=O)(=O)C1Cc1cccc2ccccc12,32.3 µM (inactive),21.2 µM (inactive),23.2 µM (inactive),,12 µM (inactive),22.3 µM (inactive),14.1 µM (inactive),16.2 µM (inactive),39.4 µM (inactive),19.8 µM (inactive),20.6 µM (inactive),20.3 µM (inactive),26.5,17 µM (inactive),20.1 µM (inactive),14.1 µM (inactive),3.37 µM (inactive),20.7 µM (inactive),30.7 µM (inactive),13.9 µM (inactive)
